The values that follow come from US8309552B2, “Immunomodulating heterocyclic compounds” (Medigene AG, priority 2003, dated 2012).

For test [1], the system named is production of Interleukin-2 (IL-2) by Human Jurkat T Cells. Put plainly: Inhibition of production of interleukin-2 (IL-2) by human Jurkat T cells (Raji/Jurkat co-culture, anti-CD3, IL-2 ELISA). It is filed as cell-based. The conditions noted are these: at 30 μM, read-out: inhibition of IL-2 production. Here is the method: • Collins A V et al. (2002) Immunity 17, 201-210 “The interaction properties of costimulatory molecules revisited” Inhibition of Production of Interleukin-2 (IL-2) by Human Jurkat T Cells. Method
Human Raji cells were dispensed at a concentration of 2×10^5 cells per well in RPMI-1640 medium supplemented with 10% fetal calf serum, 1% penicillin/streptomycin, 1% glutamine (RPMI medium) in a 96-well round bottom microtitre plate. Compounds under investigation (dissolved in 100% DMSO) were diluted to eight-fold the desired final concentration in RPMI medium and added to the required final concentration for a total volume of 200 μl per well. After 20 minutes incubation at 37° C., Jurkat T cells were added at a concentration of 2×10^5 cells per well. Monoclonal antibody to CD3 (UCHT1, R&D Systems) was added to the cultures at a final concentration of 1 μg per ml, and where indicated, monoclonal antibody to CD28 (CD28.2, BD-Pharmingen) was also added at a concentration of 2.5 μg per ml. Cells were cultured at 37° C. for 5 hours, after which the plates were centrifuged and the supernatants harvested for IL-2 ELISA assay using the IL-2 Eli-pair kit (DIACLONE Research, Besancon, France) according to the manufacturers instructions.

In test [2] the target is T1, CD80-CD28 interaction (Homo sapiens, UniProt P33681).
T1 sequence (P33681 35-242 limits assumed): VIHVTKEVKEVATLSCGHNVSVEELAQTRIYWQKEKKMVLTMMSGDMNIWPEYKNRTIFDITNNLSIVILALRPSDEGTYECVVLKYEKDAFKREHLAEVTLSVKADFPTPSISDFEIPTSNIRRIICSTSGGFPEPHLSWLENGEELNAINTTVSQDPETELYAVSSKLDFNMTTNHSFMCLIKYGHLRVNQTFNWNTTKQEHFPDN
Put plainly: Homogenous Time Resolved Fluorescence (HTRF) assay, cell free. The class given is binding. The conditions noted are these: inhibition of the CD80-CD28 interaction, 4 hours at room temperature; read-out: EC50 activity in the HTRF assay. The procedure, abridged:
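In pH7.8 Tris-HCl/NaCl buffer with 0.1% BSA, a 100 μM-1.7 nM compound series was incubated for 4 h at room temperature with CD28 and CD80 fusions carrying europium and APC via linker antibodies. Time-resolved signals at 665 and 615 nm were read after 340 nm excitation; a C215 Fab swap defined background. EC50 given as banded classes.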

Test [3] concerns the target T2, Biotinylated human CD80 (hCD80-BT) (Homo sapiens, UniProt P33681).
T2 construct: biotin (biotinylated)
T2 sequence (P33681 35-242 limits assumed): T1 sequence (P33681 35-242 limits assumed)
Nature of the test: BIAcore biomolecular interaction analysis, binding to immobilised hCD80-BT. Further details: off-rate on CD80: unit not given here. The conditions noted are these: BIAcore S51, immobilised hCD80-BT. The source says: The Use of BIAcore Biomolecular Interaction Analysis
Biotinylated human CD80 (hCD80-BT) is a recombinant soluble form of a membrane bound receptor molecule (CD80) which binds to CD28 to initiate T cell activation. The interaction between CD80 and CD28 has been extensively investigated (Collins et al, 2002). Biotinlyated human HLA-A2-tax is the recombinant soluble form of a membrane bound receptor molecule that has been used in this example as a control protein, and is not expected to interact with the compounds.
The BIAcore S51™ system was used for screening the compounds of Examples 1-4 above. A series S sensor chip CM5 was docked onto the BIAcore S51™. Streptavidin was coupled to the carboxymethyl surface using standard amine coupling. The chip surface was activated with 0.2M EDC/0.05M NHS, followed by binding of streptavidin (0.25 mg/ml in 10 mM sodium acetate pH 5.0) and saturation of unoccupied sites with […].
The BIAcore S51 sensor chip has two separate sensor spots for immobilisation of proteins. hCD80-BT was immobilised on the streptavidin-coated surface of one sensor spot until a response of approximately 3000 RU was observed. A protein to control for non-specific binding of the compound was immobilised on a second sensor spot. The control protein used for these experiments was a biotinylated, soluble form of the human HLA protein.
Dilution series of compounds (1000 nM-0.05 nM) were prepared in running buffer (10 mM, pH 7.4, 150 mM NaCl, 0.005% P20; 5% DMSO).
BIAcore S51™ was run at a flow rate of 30 μl/min using running buffer. Compounds and DMSO standard solutions for correction of data for solvent effects were injected. Data were recorded automatically and were analysed using BIAcore S51 Evaluation software.

For test [4], the target named is T2, Biotinylated human CD80 (hCD80-BT). The conditions noted are these: CD80/CD28 interaction, cited from earlier work.

Where two headings read alike, the source gives them in different places.

On to `CN(C)CCCNC(=O)c1ccc(-n2[nH]c3c(nnc4ccccc43)c2=O)cc1` [Example 2, N-[(dimethylamino)propyl]-4-(3-oxo-1,3-dihydro-2H-pyrazolo[4,3-c]cinnolin-2-yl)benzamide], for which the inhibition at 30 µM in test [1] is 65%. The EC50 in test [2] was less than 1000 nM. In test [3], the Kd was less than 100 nM and the “off-rate on CD80” value is 2×10^−2.
As to `CN1C(C)(C)CC(NC(=O)c2ccc(-n3[nH]c4c(nnc5c(F)cccc54)c3=O)cc2)CC1(C)C` [Example 7, 4-(6-fluoro-3-oxo-1,3-dihydro-2H-pyrazolo[4,3-c]cinnolin-2-yl)-n-(1,2,2,6,6-pentamethylpiperidine-4-yl)benzamide], the concentration for a half-maximal effect (EC50) in test [2] was less than 1000 nM. In test [3], the Kd is less than 100 nM and the “off-rate on CD80” value is recorded as 2×10^−2.
For “CD28: "the endogenous protein ligand (CD28)" of CD80; "CD28 on T-cells"”, the “off-rate of CD80 interaction with endogenous protein ligand” value in test [4] is “greater than 0.2 s^−1”. The Kd in test [4] (read-out: KD of CD80 interaction with endogenous protein ligand) is 4750 nM.
